Measured values from ChEMBL document CHEMBL1909294, “Translating clinical findings into knowledge in drug safety evaluation--drug induced liver injury prediction system (DILIps)” (PLoS Comput Biol, 2011).

Experiments:
[1] = test system: Hepatotoxicity;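 for HepSE bilirubinemia: bilirubinemia hepatic side effect score drawn from the DILIps training data, a prediction system for drug-induced liver injury; call rule not given here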;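 for HepSE cholecystitis: Cholecystitis-related hepatic side effect score drawn from the DILIps (drug-induced liver injury prediction) training data set; call rule not given here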;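 for HepSE cholelithiasis: hepatic side effect score for cholelithiasis, drawn from the DILIps training data for predicting drug-induced liver injury; call rule not given here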;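 for HepSE cirrhosis: cirrhosis hepatic side effect score taken from the DILIps (drug-induced liver injury prediction) training set; call rule not given here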;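 for HepSE elevated liver function tests: hepatic side effect score for raised liver function tests, as recorded in the DILIps training set used for predicting drug-induced liver injury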; for HepSE hepatic failure: call rule not given here;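 for HepSE hepatomegaly: hepatic side effect score for hepatomegaly, taken from the training set of the DILIps drug-induced liver injury prediction system; call rule not given here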
[2] = test system: Hepatotoxicity; remark: listed apart in the source;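 for HepSE bilirubinemia: bilirubinemia hepatic side effect score drawn from the DILIps training data, a prediction system for drug-induced liver injury; call rule not given here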;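 for HepSE cholecystitis: Cholecystitis-related hepatic side effect score drawn from the DILIps (drug-induced liver injury prediction) training data set; call rule not given here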;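 for HepSE cholelithiasis: hepatic side effect score for cholelithiasis, drawn from the DILIps training data for predicting drug-induced liver injury; call rule not given here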;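 for HepSE cirrhosis: cirrhosis hepatic side effect score taken from the DILIps (drug-induced liver injury prediction) training set; call rule not given here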;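 for HepSE elevated liver function tests: hepatic side effect score for raised liver function tests, as recorded in the DILIps training set used for predicting drug-induced liver injury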; for HepSE hepatic failure: call rule not given here
[3] = test system: Hepatotoxicity; remark: listed apart in the source;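 for HepSE bilirubinemia: bilirubinemia hepatic side effect score drawn from the DILIps training data, a prediction system for drug-induced liver injury; call rule not given here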;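 for HepSE cholecystitis: Cholecystitis-related hepatic side effect score drawn from the DILIps (drug-induced liver injury prediction) training data set; call rule not given here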;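 for HepSE cholelithiasis: hepatic side effect score for cholelithiasis, drawn from the DILIps training data for predicting drug-induced liver injury; call rule not given here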;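 for HepSE cirrhosis: cirrhosis hepatic side effect score taken from the DILIps (drug-induced liver injury prediction) training set; call rule not given here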;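 for HepSE elevated liver function tests: hepatic side effect score for raised liver function tests, as recorded in the DILIps training set used for predicting drug-induced liver injury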; for HepSE hepatic failure: call rule not given here
[4] = test system: Hepatotoxicity; remark: listed apart in the source;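 for HepSE bilirubinemia: bilirubinemia hepatic side effect score drawn from the DILIps training data, a prediction system for drug-induced liver injury; call rule not given here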;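 for HepSE cholecystitis: Cholecystitis-related hepatic side effect score drawn from the DILIps (drug-induced liver injury prediction) training data set; call rule not given here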;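 for HepSE cholelithiasis: hepatic side effect score for cholelithiasis, drawn from the DILIps training data for predicting drug-induced liver injury; call rule not given here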;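 for HepSE cirrhosis: cirrhosis hepatic side effect score taken from the DILIps (drug-induced liver injury prediction) training set; call rule not given here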;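 for HepSE elevated liver function tests: hepatic side effect score for raised liver function tests, as recorded in the DILIps training set used for predicting drug-induced liver injury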; for HepSE hepatic failure: call rule not given here
[5] = test system: Hepatotoxicity; remark: listed apart in the source; for HepSE hepatic failure: call rule not given here
[6] = test system: Hepatotoxicity; remark: listed apart in the source; for HepSE hepatic failure: call rule not given here
[7] = test system: Hepatotoxicity; remark: listed apart in the source
[8] = test system: Hepatotoxicity; remark: listed apart in the source
[9] = test system: Hepatotoxicity; remark: listed apart in the source
[10] = test system: Hepatotoxicity; remark: listed apart in the source
[11] = test system: Hepatotoxicity; remark: listed apart in the source
[12] = test system: Hepatotoxicity; remark: listed apart in the source
[13] = test system: Hepatotoxicity; remark: listed apart in the source
[14] = test system: Hepatotoxicity; remark: listed apart in the source

Structure (SMILES) | HepSE_bilirubinemia [1] | HepSE_cholecystitis [2] | HepSE_cholelithiasis [3] | HepSE_cirrhosis [4] | HepSE_elevated liver function tests [5] | HepSE_hepatic failure [6] | HepSE_hepatic necrosis [7] | HepSE_hepatitis [8] | HepSE_hepatomegaly [9] | HepSE_jaundice [10] | HepSE_liver disease [11] | HepSE_liver fatty [12] | HepSE_liver function tests abnormal [13] | HepSE_Combined Scores [14]
CCC(C)n1ncn(-c2ccc(N3CCN(c4ccc(OCC5COC(Cn6cncn6)(c6ccc(Cl)cc6Cl)O5)cc4)CC3)cc2)c1=O (configuration not stated) [ITRACONAZOLE] | 1 | 0 | 0 | 1 | 0 | 1 | 0 | 1 | 0 | 1 | 1 | 0 | 1 | 7
CNC1(c2ccccc2Cl)CCCCC1=O (configuration not stated) [KETAMINE] | 0 | 0 | 0 | 0 | 0 | 0 | 0 | 0 | 0 | 0 | 0 | 0 | 0 | 0
CC(=O)N1CCN(c2ccc(OCC3COC(Cn4ccnc4)(c4ccc(Cl)cc4Cl)O3)cc2)CC1 (configuration not stated) [KETOCONAZOLE] | 0 | 0 | 0 | 0 | 0 | 0 | 0 | 0 | 0 | 0 | 0 | 0 | 0 | 0
CC(C(=O)O)c1cccc(C(=O)c2ccccc2)c1 (configuration not stated) [KETOPROFEN] | 0 | 0 | 0 | 0 | 0 | 0 | 0 | 1 | 0 | 1 | 0 | 0 | 0 | 2
O=C(c1ccccc1)c1ccc2n1CCC2C(=O)O (configuration not stated) [KETOROLAC] | 0 | 0 | 0 | 0 | 0 | 1 | 0 | 1 | 0 | 1 | 0 | 0 | 0 | 3
CN1CCC(=C2c3ccccc3CC(=O)c3sccc32)CC1 [KETOTIFEN] | 0 | 0 | 0 | 0 | 0 | 0 | 0 | 1 | 0 | 0 | 0 | 0 | 0 | 1
CC(CCc1ccccc1)NCC(O)c1ccc(O)c(C(N)=O)c1 (configuration not stated) [LABETALOL] | 0 | 0 | 0 | 0 | 1 | 0 | 1 | 1 | 0 | 1 | 0 | 0 | 0 | 4
OC[C@H]1O[C@@H](O[C@@H]2[C@@H](CO)O[C@](O)(CO)[C@H]2O)[C@H](O)[C@@H](O)[C@H]1O [LACTULOSE] | 0 | 0 | 0 | 0 | 0 | 0 | 0 | 0 | 0 | 0 | 0 | 0 | 0 | 0
Nc1ccn([C@@H]2CS[C@H](CO)O2)c(=O)n1 [LAMIVUDINE] | 0 | 0 | 0 | 0 | 0 | 0 | 0 | 0 | 1 | 1 | 0 | 1 | 0 | 3
Nc1nnc(-c2cccc(Cl)c2Cl)c(N)n1 [LAMOTRIGINE] | 1 | 0 | 0 | 0 | 0 | 0 | 0 | 1 | 0 | 0 | 0 | 0 | 1 | 3
CC(C)[C@@H]1NC(=O)[C@H](CCCCN)NC(=O)[C@@H](Cc2c[nH]c3ccccc23)NC(=O)[C@H](Cc2ccc(O)cc2)NC(=O)[C@@H](NC(=O)[C@H](N)Cc2ccc3ccccc3c2)CSSC[C@@H](C(=O)N[C@H](C(N)=O)[C@@H](C)O)NC1=O [LANREOTIDE] | 1 | 1 | 1 | 0 | 0 | 0 | 0 | 0 | 1 | 0 | 0 | 0 | 0 | 4
Cc1c(OCC(F)(F)F)ccnc1C[S+]([O-])c1nc2ccccc2[nH]1 (configuration not stated) [LANSOPRAZOLE] | 1 | 0 | 1 | 0 | 0 | 0 | 0 | 0 | 0 | 1 | 0 | 0 | 1 | 4
CC(C)OC(=O)CCC/C=C\C[C@@H]1[C@@H](CC[C@@H](O)CCc2ccccc2)[C@H](O)C[C@@H]1O [LATANOPROST] | 0 | 0 | 0 | 0 | 0 | 0 | 0 | 0 | 0 | 0 | 0 | 0 | 0 | 0
